From paper PMC3514216, “SRC Homology 2 Domain Binding Sites in Insulin, IGF-1 and FGF receptor mediated signaling networks reveal an extensive potential interactome” (Cell Communication and Signaling : CCS, 2012)
Substitutions are numbered along the chain they refer to. Like-named read-outs stand apart in the source and are kept apart here.

Assays:
[1] = tested on: panel of 50 SH2 domains; test: SPOT peptide array probed with each of 50 GST-SH2 domains; type: binding; conditions: SH2 domains with intensity >3X array mean; GST-SH2 0.25 μM, 1 mM DTT
Procedure, shortened: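 Membrane SPOT arrays of 192 phosphotyrosine 11-mer peptides (four residues N-terminal, six C-terminal to pTyr) probed with GST-SH2 fusions, detected by anti-GST plus near-infrared secondary antibody. Spots >3-fold array mean scored positive, below mean negative, 1–3× indeterminate; peptides binding GST alone above mean in two of three trials flagged as sticky.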

[2] = target: T1, Rasa1_C SH2 domain (Homo sapiens, UniProt P20936); test: SPOT peptide array; type: binding; conditions: GST-SH2 0.25 μM, membrane-bound peptide, 1 mM DTT, LiCor read-out
T1 sequence (P20936 351-441 limits assumed): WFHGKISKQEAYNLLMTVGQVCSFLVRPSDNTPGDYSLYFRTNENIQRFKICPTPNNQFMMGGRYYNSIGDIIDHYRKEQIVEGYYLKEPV

[3] = tested on: Hck SH2 domain; test: SPOT peptide array; type: binding; conditions: GST-SH2 0.25 μM, membrane-bound peptide, 1 mM DTT, LiCor read-out
Procedure, shortened: (§1)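 Membrane-bound 11-mer phosphotyrosine peptides from insulin, IGF-1 and FGF receptors, their substrates and signaling proteins were probed with GST–SH2 fusions and detected with anti-GST and near-infrared secondary antibodies. Spots >3× the membrane mean scored positive and below the mean negative. GST-only "sticky" peptides were excluded.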

[4] = target: Crk SH2 domain (Homo sapiens, UniProt P46108); test: SPOT peptide array; type: binding; conditions: GST-SH2 0.25 μM, membrane-bound peptide, 1 mM DTT, LiCor read-out
Chain of Crk SH2 domain (P46108 13-118 limits assumed): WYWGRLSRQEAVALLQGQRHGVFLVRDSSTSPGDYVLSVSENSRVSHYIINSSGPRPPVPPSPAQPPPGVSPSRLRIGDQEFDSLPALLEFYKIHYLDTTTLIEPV
Procedure, shortened: as §1

[5] = target: T2, Abl1 SH2 domain (Homo sapiens, UniProt P00519); design: method as in earlier work; conditions: SH2 protein microarray; N.B. = non binding; read-out: Protein Microarray (Macbeath) – KD; cited from earlier work
T2 sequence (P00519 127-217 limits assumed): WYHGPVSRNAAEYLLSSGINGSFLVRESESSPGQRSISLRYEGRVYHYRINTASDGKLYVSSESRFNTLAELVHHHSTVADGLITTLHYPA

[6] = target: T3, CrkL SH2 domain (Homo sapiens, UniProt P46109); design: method as in earlier work; conditions: SH2 protein microarray; N.B. = non binding; read-out: Protein Microarray (Macbeath) – KD; cited from earlier work
T3 sequence (P46109 14-102 limits assumed): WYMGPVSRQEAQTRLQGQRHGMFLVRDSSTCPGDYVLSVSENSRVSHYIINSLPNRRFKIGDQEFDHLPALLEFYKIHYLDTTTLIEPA

[7] = target: T4, Abl2 SH2 domain (Homo sapiens, UniProt P42684); design: method as in earlier work; conditions: SH2 protein microarray; N.B. = non binding; read-out: Protein Microarray (Macbeath) – KD; cited from earlier work
T4 sequence (P42684 173-263 limits assumed): T2 sequence (P00519 127-217 limits assumed) with N9S, G18L, R35L, A53T, S54A, L58V, S61T, S62A, N67S, I84V

[8] = target: T5, Grb2 SH2 domain (Homo sapiens, UniProt P62993); design: method as in earlier work; conditions: SH2 protein microarray; N.B. = non binding; read-out: Protein Microarray (Macbeath) – KD; cited from earlier work
T5 sequence (P62993 60-152 limits assumed): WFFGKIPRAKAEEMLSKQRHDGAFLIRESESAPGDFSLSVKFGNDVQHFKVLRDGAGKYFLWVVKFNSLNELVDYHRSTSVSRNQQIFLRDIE

[9] = target: T6, Nck1 SH2 domain (Homo sapiens, UniProt P16333); design: method as in PMID 16636066; conditions: peptide similar to the TIR10 peptide (EHIpYDEVAAD); read-out: Affinity (KD); cited from earlier work
[10] = target: T6, Nck1 SH2 domain; test: SPOT peptide array; type: binding; conditions: GST-SH2 0.25 μM, membrane-bound peptide, 1 mM DTT, LiCor read-out
Procedure, shortened: as §1

[11] = target: PI3K1_N SH2 domain (Homo sapiens, UniProt P27986); test: Fluorescence polarization solution binding; conditions: Rhodamine B-labeled peptide, GST-SH2, Beacon 2000, read-out: Affinity (KD)
Chain of PI3K1_N SH2 domain (P27986 333-428 limits assumed): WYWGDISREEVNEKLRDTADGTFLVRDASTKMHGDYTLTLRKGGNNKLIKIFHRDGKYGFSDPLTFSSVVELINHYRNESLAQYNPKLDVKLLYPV
From the text: (§2) To verify the binding results obtained from addressable peptide arrays we employed an orthogonal method of determining SH2 interactions with peptide ligands. We measured the dissociation constants of 60 binary SH2-peptide pairs in solution by fluorescence polarization (Table 2, Additional file 2: Figures S3A-C).
(§3) Peptides were synthesized using FMOC-chemistry onto pre-loaded tenta-gel resins. Peptides were then labeled with Rhodamine B (Abbey Color) and then cleaved using trifluoroacetic acid. Peptides were lyophilized and then purified using a LC/MS (Agilent 2100). Dissociation constants were measured using the Beacon 2000 (Invitrogen) as previously described.
(§4) Binding Affinities determined by Fluorescence Polarization. Rhodamine B-labeled peptides were mixed with varying concentrations of GST-tagged SH2 domains. Fluorescence polarization measurements were read on a Beacon 2000 (Invitrogen). The curves were fit to a Michaelis-Menten equation to calculate the dissociation constant, KD. […] (C) Affinity measurements that fell below the 2X mean intensity and were considered array negative on the SPOT array.

[12] = target: T5, Grb2 SH2 domain; test: Fluorescence polarization solution binding; conditions: Rhodamine B-labeled peptide, GST-SH2, Beacon 2000, read-out: Affinity (KD)
From the text: as §2, §3, §4

[13] = target: T3, CrkL SH2 domain; test: Fluorescence polarization solution binding; conditions: Rhodamine B-labeled peptide, GST-SH2, Beacon 2000, read-out: Affinity (KD)
From the text: as §2, §3, §4

What does the source list for “QDSLpYSDPLDS [11-mer phosphotyrosine peptide, p62DOK1 (Y315)]”?
Other SH2 domains bound (additional array-positive SH2 domains) [1]: Abl1, Blk, Crk, Lck, Lyn, Nck1, Src, Zap70_N; Array positive [2]: Yes (Array-positive binding was ascribed to interactions with intensities greater than three times the array mean)

With “EDDGpYDVPKPP [11-mer phosphotyrosine control peptide, Cbl (Y774), reference compound]” as the compound, how does the “Other SH2 domains bound (additional array-positive SH2 domains)” value [1] read?
Its value is “Crkl and Fgr, Src, Yes”.

What about the Array positive [3] of the same compound?
Its Array positive is “Yes (Array-positive binding was ascribed to interactions with intensities greater than three times the array mean)”.

And the Array positive [4]?
Its Array positive is “Yes (Array-positive binding was ascribed to interactions with intensities greater than three times the array mean)”.

What does the source list for “QARRPPGLEpYCYNPSHND* (QARRPPGLEYCYNPSHND) [FGFR1 Y583 phosphopeptide; Cys replaced with Ala or Ser on peptide arrays]”?
Kd [5]: 1800 nM; Kd [6]: 1550 nM; Kd [7]: 340 nM; Kd [8]: 1620 nM

For “GLDEpYDEVPMP [11-mer phosphotyrosine control peptide, B3AT (Y921), similar to the TIR10 peptide, reference compound]”, which Kd [9] is on record?
Its Kd is 60 nM.

What about the Array positive [10] of the same compound?
The Array positive was “Yes (Array-positive binding was ascribed to interactions with intensities greater than three times the array mean)”.

Which Kd [11] does the source give for `CC[C@H](C)[C@H](NC(=O)[C@H](Cc1ccc(OP(=O)(O)O)cc1)NC(=O)[C@H](CC(N)=O)NC(=O)[C@H](CC(C)C)NC(=O)CNC(=O)[C@@H](N)CC(N)=O)C(=O)N[C@@H](CC(=O)O)C(=O)N[C@@H](CC(C)C)C(=O)N[C@@H](CC(=O)O)C(=O)N[C@@H](CC(C)C)C(=O)N[C@H](C(=O)O)C(C)C` [NGLNpYIDLDLV] here?
Its Kd is 15000 nM.

And the Kd [12]?
Its Kd is greater than 50000 nM.

And the Kd [13]?
Its Kd is greater than 50000 nM.
